Test results published in PubChem BioAssay AID248 (DTP/NCI, 2004).
Where “and” joins values, the source holds several entries; their conditions need not be identical. Equal entries are not always repeated. Inconclusive results and toxic doses are left out.

Test system: L1210 leukemia ip in BDF1 mice, survival T/C
Experiment: NCI In Vivo Anticancer Drug Screen. Data for tumor model L1210 Leukemia (intraperitoneal) in B6D2F1 (BDF1) mice
Conditions: endpoint: mean survival time, higher = longer survival
Summary of the method: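 Ratio derived from survival: compound-dosed mice over vehicle-dosed mice, all bearing a transplantable tumor.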

[1] = dose: 100.0 mg/kg/injection, schedule: Q01DX009 (ip), vehicle: Klucel (hydroxypropylcellulose) (HPC)
[2] = dose: 200.0 mg/kg/injection, schedule: Q01DX009 (ip), vehicle: Klucel (hydroxypropylcellulose) (HPC)
[3] = dose: 400.0 mg/kg/injection, schedule: Q01DX009 (ip), vehicle: Klucel (hydroxypropylcellulose) (HPC)
[4] = dose: 100.0 mg/kg/injection, schedule: Q04DX003 (ip), vehicle: saline with Tween-80
[5] = dose: 200.0 mg/kg/injection, schedule: Q04DX003 (ip), vehicle: saline with Tween-80
[6] = dose: 400.0 mg/kg/injection, schedule: Q04DX003 (ip), vehicle: saline with Tween-80
[7] = dose: 100.0 mg/kg/injection, schedule: Q04DX003 (ip), vehicle: Klucel (hydroxypropylcellulose) (HPC)
[8] = dose: 200.0 mg/kg/injection, schedule: Q04DX003 (ip), vehicle: Klucel (hydroxypropylcellulose) (HPC)
[9] = dose: 100.0 mg/kg/injection, schedule: Q01DX001 (ip), vehicle: Klucel (hydroxypropylcellulose) (HPC)
[10] = dose: 200.0 mg/kg/injection, schedule: Q01DX001 (ip), vehicle: Klucel (hydroxypropylcellulose) (HPC)
[11] = dose: 400.0 mg/kg/injection, schedule: Q01DX001 (ip), vehicle: saline
[12] = dose: 50.0 mg/kg/injection, schedule: Q04DX002 (ip), vehicle: Klucel (hydroxypropylcellulose) (HPC)
[13] = dose: 100.0 mg/kg/injection, schedule: Q04DX002 (ip), vehicle: Klucel (hydroxypropylcellulose) (HPC)
[14] = dose: 200.0 mg/kg/injection, schedule: Q04DX002 (ip), vehicle: Klucel (hydroxypropylcellulose) (HPC)
[15] = dose: 100.0 mg/kg/injection, schedule: Q01DX001 (ip), vehicle: saline
[16] = dose: 100.0 mg/kg/injection, schedule: Q01DX009 (ip), vehicle: saline with Tween-80
[17] = dose: 200.0 mg/kg/injection, schedule: Q01DX001 (ip), vehicle: saline
[18] = dose: 200.0 mg/kg/injection, schedule: Q01DX009 (ip), vehicle: saline with Tween-80
[19] = dose: 400.0 mg/kg/injection, schedule: Q01DX009 (ip), vehicle: saline with Tween-80
[20] = dose: 400.0 mg/kg/injection, schedule: Q04DX002 (ip), vehicle: Klucel (hydroxypropylcellulose) (HPC)
[21] = dose: 100.0 mg/kg/injection, schedule: Q04DX003 (ip), vehicle: saline
[22] = dose: 200.0 mg/kg/injection, schedule: Q04DX003 (ip), vehicle: saline
[23] = dose: 400.0 mg/kg/injection, schedule: Q04DX003 (ip), vehicle: saline

COc1ccc(Cl)cc1NS(=O)(=O)c1ccc(Cl)cc1
T/C [1]: 97 % of control | T/C [2]: 102 % of control | T/C [3]: 92 % of control

COc1ccc(COc2ccc(OC)cc2)cc1
T/C [4]: 95 % of control | T/C [5]: 96 % of control | T/C [6]: 98 % of control

O=c1sc(=S)[nH]c2ccccc12
T/C [7]: 88 % of control | T/C [8]: 93 % of control

C/C(=N\O)C(O)c1ccccc1 (configuration not stated)
T/C (dose: 50.0 mg/kg/injection, schedule: Q01DX001 (ip), vehicle: other): 97 % of control | T/C (dose: 100.0 mg/kg/injection, schedule: Q01DX001 (ip), vehicle: other): 89 % of control | T/C (dose: 200.0 mg/kg/injection, schedule: Q01DX001 (ip), vehicle: other): 97 % of control | T/C (dose: 400.0 mg/kg/injection, schedule: Q01DX001 (ip), vehicle: other): 92 % of control

O=C(C(O[N+](=O)[O-])c1ccccc1)C(O[N+](=O)[O-])c1ccccc1 (configuration not stated)
T/C [9]: 95 % of control | T/C [10]: 95 % of control | T/C (dose: 400.0 mg/kg/injection, schedule: Q01DX001 (ip), vehicle: Klucel (hydroxypropylcellulose) (HPC)): 93 % of control

O=C(CCCCC(=O)Nc1ccc(C2=NCCN2)cc1)Nc1ccc(C2=NCCN2)cc1
T/C (dose: 11.0 mg/kg/injection, schedule: Q01DX009 (ip), vehicle: saline): 123 % of control | T/C (dose: 75.0 mg/kg/injection, schedule: Q04DX003 (ip), vehicle: saline): 123 % of control | T/C (dose: 90.0 mg/kg/injection, schedule: Q01DX009 (ip), vehicle: saline): 256 % of control | T/C (dose: 150.0 mg/kg/injection, schedule: Q04DX003 (ip), vehicle: saline): 123 % of control | T/C (dose: 175.0 mg/kg/injection, schedule: Q01DX001 (ip), vehicle: saline): 108 % of control | T/C (dose: 175.0 mg/kg/injection, schedule: Q01DX009 (ip), vehicle: saline): 212 % of control | T/C (dose: 265.0 mg/kg/injection, schedule: Q01DX009 (ip), vehicle: saline): 214 % of control | T/C (dose: 266.0 mg/kg/injection, schedule: Q01DX001 (ip), vehicle: saline): 156 % of control | T/C (dose: 300.0 mg/kg/injection, schedule: Q04DX003 (ip), vehicle: saline): 154 % of control | T/C [11]: 186 % of control | T/C (dose: 500.0 mg/kg/injection, schedule: Q01DX001 (ip), vehicle: carboxymethylcellulose (CMC)): 179 % of control | T/C (dose: 600.0 mg/kg/injection, schedule: Q01DX001 (ip), vehicle: saline): 214 % of control | T/C (dose: 600.0 mg/kg/injection, schedule: Q04DX003 (ip), vehicle: saline): 197 % of control | T/C (dose: 1000.0 mg/kg/injection, schedule: Q01DX001 (ip), vehicle: carboxymethylcellulose (CMC)): 273 % of control

COc1nc(Cl)nc2c1c(C#N)cn2C1OC(CO)C(O)C1O (configuration not stated)
T/C (dose: 100.0 mg/kg/injection, schedule: Q01DX005 (ip), vehicle: saline): 113 % of control

CCc1oc2cc([N+](=O)[O-])ccc2c1C#N
T/C (dose: 25.0 mg/kg/injection, schedule: Q04DX002 (ip), vehicle: Klucel (hydroxypropylcellulose) (HPC)): 86 % of control | T/C [12]: 89 % of control | T/C [1]: 97 % of control | T/C [13]: 93 % of control | T/C [2]: 101 % of control | T/C [3]: 97 % of control

CCOC(=O)C1C(=O)Nc2c(ccc3ccccc23)N1C(C)=O (configuration not stated)
T/C [12]: 96 % of control | T/C [13]: 93 % of control | T/C [14]: 93 % of control

C1CNCCNCCCNCCNC1
T/C (dose: 12.5 mg/kg/injection, schedule: Q04DX002 (ip), vehicle: saline with Tween-80): 93 % of control | T/C (dose: 25.0 mg/kg/injection, schedule: Q04DX002 (ip), vehicle: saline with Tween-80): 101 % of control | T/C (dose: 50.0 mg/kg/injection, schedule: Q04DX002 (ip), vehicle: saline with Tween-80): 90 % of control

Cc1ccccc1Sc1cc2ccccc2c2ccccc12
T/C [15]: 94 % of control | T/C [16]: 96 % of control | T/C [17]: 97 % of control | T/C [18]: 98 % of control | T/C [11]: 94 % of control | T/C [19]: 101 % of control

COc1ccc(/C=C/c2cc[n+](C)cc2)cc1OC
T/C (dose: 75.0 mg/kg/injection, schedule: Q01DX001 (ip), vehicle: carboxymethylcellulose (CMC)): 111 % of control | T/C (dose: 150.0 mg/kg/injection, schedule: Q01DX001 (ip), vehicle: carboxymethylcellulose (CMC)): 109 % of control | T/C (dose: 300.0 mg/kg/injection, schedule: Q01DX001 (ip), vehicle: carboxymethylcellulose (CMC)): 103 % of control

C#CC(C)(C)CC(=O)O
T/C [4]: 98 % of control | T/C [5]: 95 % of control | T/C [6]: 92 % of control

O=C(Nc1ccc(Cl)cc1C(=O)c1ccccc1)c1ccc([N+](=O)[O-])cc1
T/C [13]: 89 % of control | T/C [14]: 95 % of control | T/C [20]: 92 % of control

Br/C=C(\Br)C[N+]12CN3CN(CN(C3)C1)C2
T/C [16]: 96 % of control | T/C [4]: 100 % of control | T/C [5]: 114 % of control | T/C [6]: 101 % of control

CCOc1ccc(-n2c(=O)c(N=Nc3ccccc3OC)c(O)n(-c3ccccc3OC)c2=S)cc1
T/C (dose: 50.0 mg/kg/injection, schedule: Q01DX001 (ip), vehicle: Klucel (hydroxypropylcellulose) (HPC)): 91 % of control | T/C [9]: 100 % of control | T/C [10]: 87 % of control

CCOC(=O)c1c(-c2ccc([N+](=O)[O-])cc2)c(C#N)n(-c2ccccc2)c1C
T/C [13]: 95 % of control | T/C [14]: 92 % of control | T/C [20]: 103 % of control

c1ccc2c(c1)CNC2
T/C [21]: 104 % of control | T/C (dose: 200.0 mg/kg/injection, schedule: Q01DX009 (ip), vehicle: saline): 94 % of control | T/C [22]: 106 % of control | T/C (dose: 400.0 mg/kg/injection, schedule: Q01DX009 (ip), vehicle: saline): 92 % of control | T/C [23]: 97 % of control

OC1C(Br)C2C3CC4C(C13)C42 (configuration not stated)
T/C [12]: 97 % of control | T/C [13]: 89 % of control | T/C [14]: 93 % of control

NS(=O)(=O)Cc1ccccc1
T/C (dose: 25.0 mg/kg/injection, schedule: Q01DX009 (ip), vehicle: saline): 92 % of control | T/C (dose: 50.0 mg/kg/injection, schedule: Q01DX009 (ip), vehicle: saline): 94 % of control | T/C (dose: 100.0 mg/kg/injection, schedule: Q01DX009 (ip), vehicle: saline): 100 % of control

Cc1cc(N(CCCl)CCCl)ccc1C=Nc1ccc(-c2nc(Cc3ccccc3)sc2C)cc1
T/C (dose: 100.0 mg/kg/injection, schedule: Q01DX001 (ip), vehicle: carboxymethylcellulose (CMC)): 117 % of control | T/C (dose: 200.0 mg/kg/injection, schedule: Q01DX001 (ip), vehicle: carboxymethylcellulose (CMC)): 98 % of control | T/C (dose: 400.0 mg/kg/injection, schedule: Q01DX001 (ip), vehicle: carboxymethylcellulose (CMC)): 110 % of control

CCCCNC(=O)c1ccc(C)c(OCc2ccccc2)c1[N+](=O)[O-]
T/C [15]: 108 % of control | T/C [17]: 87 % of control | T/C [11]: 90 % of control

COc1ccc(N=Cc2ccc(Cl)cc2)cc1C(F)(F)F
T/C [7]: 98 % of control | T/C [8]: 89 % of control | T/C (dose: 400.0 mg/kg/injection, schedule: Q04DX003 (ip), vehicle: Klucel (hydroxypropylcellulose) (HPC)): 104 % of control

C=CCNc1cc(NN)nn2nnnc12
T/C [13]: 108 % of control | T/C [14]: 104 % of control | T/C [20]: 123 % of control

S=c1sc2ccccc2n1CN(c1ccccc1)c1ccc2ccccc2c1
T/C [16]: 88 % of control | T/C [4]: 88 % of control | T/C [18]: 90 % of control | T/C [5]: 88 % of control | T/C [19]: 94 % of control | T/C [6]: 93 % of control

CC(C)CCCC(C)C1CCC2C3CCC45CC4C(=O)CCC5(C)C3CCC12C (configuration not stated)
T/C (dose: 100.0 mg/kg/injection, schedule: Q01DX009 (ip), vehicle: acetone): 87 % of control and 96 % of control | T/C (dose: 200.0 mg/kg/injection, schedule: Q01DX009 (ip), vehicle: acetone): 103 % of control | T/C (dose: 400.0 mg/kg/injection, schedule: Q01DX009 (ip), vehicle: acetone): 89 % of control and 94 % of control

O=c1[nH][nH]c(-c2ccccc2)c1Cc1ccccc1
T/C [21]: 95 % of control | T/C [22]: 96 % of control | T/C [23]: 96 % of control
